Measured values published in patent publication US20140088144A1, “INHIBITING MICROBIAL INFECTIONS” (THE UNIVERSITY OF KANSAS, priority 2012, published 2014).

Key:
ipaB = assay: Shigella gene expression qRT-PCR, ipaB; assay type: cell-based, S. flexneri; details: for Average ΔΔCt / Ct / RQ (2^−ΔΔCt) / ΔΔCt^1 (normalized to gapA) / ΔΔCt^2 (normalized to rrsA): ipaB, example data
Method: (§1) Real-time quantitative reverse transcription PCR (qRT-PCR) was performed to test the effects of SE-1 on the expression of the VirF regulated genes virB, icsA, icsB and ipaB. The gapA and rrsA transcripts were used as internal controls. These are constitutively expressed Shigella genes commonly used to normalize mRNA levels. S. flexneri strain SME4331, which carries a null mutation in ipgD (ipgD), was grown at 30° C. overnight in TSB with ampicillin, diluted into the same medium to an OD600 of ˜0.1, and 1 ml aliquots further grown at 30° C. (DMSO only) or at 37° C. (SE-1 at 20 or 40 μM, or DMSO only, all 0.3% DMSO). Cells were grown to an OD600 of 1.0 (˜2.5 h) and RNA was isolated using an RNeasy MiniElute Cleanup Kit (Qiagen, Germantown, Md.), with DNA contamination eliminated using a Turbo DNase Kit (Ambion, Austin, Tex.). Complementary DNA (cDNA) was synthesized by random priming using a cDNA Reverse Transcription Kit (Applied Biosystems, Foster City, Calif.). Primers were tested for PCR specificity using genomic DNA template to ensure a single amplicon of the expected size for each primer pair, and validated using 5-fold dilutions of cDNA (2000 to 0.0256 ng) to ensure a linear plot of cycle threshold (Ct) versus cDNA concentration. Validated primer sets were used to test mRNA profiles in reactions that contained 10 ng of cDNA, 10 μl of SYBR green master mix (Applied Biosystems), specific primers (0.5 μM each) and water to a final volume of 20 μl, using a Step One Plus Real-Time PCR System (Applied Biosystems). The data was analyzed using the 2^−ΔΔCt method, and also by Applied Biosystems real-time analysis software. […] In brief, ΔΔCt values [ΔΔCt=(Ct,Target−Ct,Internal Control)SE-1−(Ct,Target−Ct,Internal Control)no SE-1] were separately obtained for each sample relative to two internal controls, gapA and rrsA. The ΔΔCt values relative to the two internal controls for each sample were averaged and then used to calculate the relative expression levels (2^−ΔΔCt). As a control, we also normalized each internal control to the other internal control. Control reactions used templates generated without reverse transcriptase to ensure low genomic DNA contamination. To ensure that products were not likely to be due to primer dimer artifacts, additional control samples were performed in which reaction mixtures contained primers alone (no template).

[1] = tested on: Shigella invasion of HeLa cells; assay: Shigella invasion of HeLa cells; assay type: cell-based, Shigella flexneri strain M90T; details: bacteria grown with compound before addition to cells
Method: We assayed the effect of Compound 1 on the interaction of Shigella with cultured human epithelial cells. Shigella flexneri strain M90T was grown to maximize type III secretion system [Shigella] expression. Shigella was assayed for invasion of HeLa cells. The bacterial cells were grown in the presence of Compound 1 prior to addition to tissue culture wells. Invasion assays involved, briefly, incubation of Shigella cells in tissue culture wells, washing to remove non-adherent bacteria, addition of gentamycin to kill bacterial cells that had not invaded the epithelial cells, trypsin treatment to dislodge epithelial cells, serial dilutions and plating on LB to enumerate bacterial colonies

RhaS = RhaS (Escherichia coli, UniProt P09377); assay: % Inhibition at 82.5 μM, RhaS; assay type: cell-based, E. coli
icsA = assay: Shigella gene expression qRT-PCR, icsA; assay type: cell-based, S. flexneri; details: for Average ΔΔCt / Ct / RQ (2^−ΔΔCt) / ΔΔCt^1 (normalized to gapA) / ΔΔCt^2 (normalized to rrsA): icsA, example data
Method: as §1

[2] = tested on: E. coli strains used for in vivo assays; assay: E. coli growth curves; assay type: cell-based; details: for impact on growth of the cells: minimal medium
Method: Strains SME3634 and SME3359 were grown overnight (˜16 hr) at 37° C. in MOPS-buffered minimal medium. Overnight grown cultures were diluted into the same medium plus rhamnose to an O.D600 of 0.1, and IPTG was added. 1 mL aliquots of the cultures were added to wells of a 24-well plate, with the addition of either 44 μM Compound 1 (dissolved in 100% DMSO) or an equal volume of 100% DMSO. Growth was monitored at 20 min intervals for approximately 8 hr. at 37° C. with continuous shaking in a PowerWave XS plate reader (BioTek Instruments, Inc., Winooski, Vt.). Error bars represent the standard error of the mean.
To test the impact of SE-1 on growth of the bacterial strains used for in vivo dose-response assays (SME4382 and SME3359), we compared growth rates in the presence and absence of SE-1, without addition of rhamnose. Briefly, the cells were grown at 37° C. with shaking in MOPS-buffered minimal medium with glycerol and plus 6.5 mM IPTG, in 24-well plates, with or without: SE-1 (44 uM SE-1, 0.3% DMSO), or DMSO (0.3%) in a PowerWave XS plate reader equipped with KC^4 data analysis software (BioTek Instruments).

Sequence of RhaS (P09377 whole entry): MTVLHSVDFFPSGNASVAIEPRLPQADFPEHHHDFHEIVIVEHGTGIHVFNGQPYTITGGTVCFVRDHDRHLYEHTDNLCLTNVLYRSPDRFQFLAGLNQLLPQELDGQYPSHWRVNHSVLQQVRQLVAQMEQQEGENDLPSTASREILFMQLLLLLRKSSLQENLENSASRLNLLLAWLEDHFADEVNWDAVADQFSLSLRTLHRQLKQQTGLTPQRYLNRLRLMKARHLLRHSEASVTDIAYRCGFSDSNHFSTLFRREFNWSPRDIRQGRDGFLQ

For CCCCN1C=C(c2ccc3ccccc3n2)C(C[N+](=O)[O-])c2ccccc21 (stereo not shown) [Compound 1, 1-butyl-4-(nitromethyl)-3-quinolin-2-yl-4H-quinoline], the “reduction of ipaB expression” value (ipaB; 40 μM inhibitor, P<0.05) was “up to 4 fold”, the “Average ΔΔCt” value (ipaB; SE-1 20 μM) was 1.11 and the Ct (ipaB; SE-1 20 μM) was 25.57. The “RQ (2^−ΔΔCt)” value (ipaB; SE-1 20 μM) was 0.46, the “ΔΔCt^1 (normalized to gapA)” value (ipaB; SE-1 20 μM) was 0.62 and the “ΔΔCt^2 (normalized to rrsA)” value (ipaB; SE-1 20 μM) was 1.61. The “Average ΔΔCt” value (ipaB; SE-1 40 μM) was 2.20, the Ct (ipaB; SE-1 40 μM) was 26.23 and the “RQ (2^−ΔΔCt)” value (ipaB; SE-1 40 μM) was 0.22. For the same compound, the “ΔΔCt^1 (normalized to gapA)” value (ipaB; SE-1 40 μM) was 1.85, the “ΔΔCt^2 (normalized to rrsA)” value (ipaB; SE-1 40 μM) was 2.54 and the “ability of Shigella to invade human epithelial cells” value [1] was “reduced”. The “% Inhibition at 82.5 μM RhaS” value (RhaS) was 90%, the “icsA expression level” value (icsA; 20 μM inhibitor, 37° C.) was “essentially unchanged” and the “icsA expression level” value (icsA; 40 μM inhibitor, P<0.05) was “significantly reduced”. The “Average ΔΔCt” value (icsA; SE-1 20 μM) was 0.04, the Ct (icsA; SE-1 20 μM) was 27.88 and the “RQ (2^−ΔΔCt)” value (icsA; SE-1 20 μM) was 0.97. For the same compound, the “ΔΔCt^1 (normalized to gapA)” value (icsA; SE-1 20 μM) was −0.46, the “ΔΔCt^2 (normalized to rrsA)” value (icsA; SE-1 20 μM) was 0.54 and the “Average ΔΔCt” value (icsA; SE-1 40 μM) was 1.17. For the same compound, the Ct (icsA; SE-1 40 μM) was 28.59, the “RQ (2^−ΔΔCt)” value (icsA; SE-1 40 μM) was 0.44 and the “ΔΔCt^1 (normalized to gapA)” value (icsA; SE-1 40 μM) was 0.82. The “ΔΔCt^2 (normalized to rrsA)” value (icsA; SE-1 40 μM) was 1.52, the “effect on growth of either strain” value ([2]; 44 uM, SME4382 and SME3359, 8 h at 37° C.) was “no detectable effect” and the “impact on growth of the cells” value ([2]; 44 μM, strains with RhaS-activated and LacI-repressed fusions (SME3634, SME3359)) was “no impact”. The “impact on growth of the cells” value ([2]; strains with VirF/Rns-activated and LacI-repressed reporter fusions) was “no impact”.
